Source: patent publication US12109218B2, “Compositions of grapiprant and methods for using the same” (ARATANA THERAPEUTICS, INC., priority 2014, dated 2024)

Key:
onychectomy in cats = assay: Onychectomy pain model in cats (Example 5); type: in vivo, cat; conditions: vs placebo
From the text: The objective of this pilot study was to validate that this model/pain scoring system can differentiate positive from negative control animals in controlling the pain and inflammation of onychectomy and to test the effectiveness of a single dose of grapiprant in controlling the pain and inflammation associated with onychectomy in cats.
Following an acclimation period of 7, 8, or 9 days, a total of 30 adult cats were randomly divided between three treatment groups with ten animals assigned to each group. All animals were randomly assigned to a given surgery day such that within each day, an equal number of cats was from each treatment group. Within each day, the order of surgery was also randomized. […]
Surgical Procedure. […] During surgical procedures, each animal was monitored for at least heart rate and respiratory rate. […] Following surgery, each animal was periodically monitored until full recovery. […] Extubation time (time zero=T0) was recorded as the end of surgery.
All study animals were scored for sedation and analgesia the following schedule in Table 10. […]
Analgesia scores were given at specified time points during the study. […] Analgesia was scored by the same assessor during the first 8 hours of the study. […]
Results. The cat was evaluated as the experimental unit. Differences between treatment groups were evaluated at alpha of 0.05. […]

Feline Onychectomy = assay: Feline onychectomy pain study FCL-12-002 (Example 9); type: in vivo, cat
Method: This controlled, non-GLP, laboratory study used three treatment groups: Group 1 was dosed with 20-mg grapiprant-containing Formulation […] tablets the night before (about 12 hours) and 30 minutes before surgery; Group 2 was the negative control dosed with empty gelatin capsules; and Group 3 was dosed with two 20-mg grapiprant-containing Formulation […] tablets given 30 minutes before surgery. Ten adult cats were in each group. The cats were acclimated for 7 days. Cats were divided into two sequences of 15 cats each to allow for surgeries over two days. The day of surgery was considered Day 0 for that sequence. One cat from each grapiprant-treated group was removed before surgical procedures were performed. On Day -1/0 for that sequence, all animals were administered with the appropriate test article before onychectomy. All animals received a dose of butorphanol before surgery. Following Day 2 procedures, all animals were transferred to an open feline colony. Study parameters of interest included statistical analysis of recovery, sedation, analgesia scores, and clinical pathology.

[1] = cats, 20-mg Formulation A34 tablets before onychectomy, vs placebo control

Which results are given for `CCc1nc2c(C)nc(C)cc2n1-c1ccc(CCNC(=O)NS(=O)(=O)c2ccc(C)cc2)cc1` [grapiprant, N-{2-[4-(2-ethyl-4,6-dimethyl-1H-imidazo[4,5-c]pyridin-1-yl)phenyl]ethyl}-N′-[(4-methylphenyl)sulfonyl]urea]?
sedation scores (onychectomy in cats; 20 mg tablet Formulation A34 about 30 minutes before onychectomy): without an apparent effect on sedation scores; analgesia scores (onychectomy in cats; oral tablet about 30 minutes before onychectomy (grapiprant: 20 mg tablet Formulation A34, Day 0 only; Onsior: 6 mg, Days 0-2)): decreased analgesia scores (reduced pain); comparison of dosing regimens (Feline Onychectomy; Group 1 (about 12 hours and 30 minutes before surgery) vs Group 3 (two tablets 30 minutes before surgery)): dosing the cats with grapiprant the night before surgery was more effective; pain interventions (Feline Onychectomy; both groups of grapiprant treated animals): fewer pain interventions than placebo control; analgesia scores (Feline Onychectomy; [1]): decreased analgesia scores (reduced pain); sedation scores (Feline Onychectomy; [1]): without an apparent effect on sedation scores
